Laboratory results taken from PMC8041284, “Tunable Methacrylamides for Covalent Ligand Directed Release Chemistry” (Journal of the American Chemical Society, 2021).
Read-outs that look alike come from different tables or passages of the source.

Target: BTK (Homo sapiens, UniProt Q06187)
Assay: biochemical
[1] = read-out: BTK inhibition (%), 0.75 uM BTK, […] probe 3l, 15 min preincubation

Chain of BTK (Q06187 402-655 limits assumed): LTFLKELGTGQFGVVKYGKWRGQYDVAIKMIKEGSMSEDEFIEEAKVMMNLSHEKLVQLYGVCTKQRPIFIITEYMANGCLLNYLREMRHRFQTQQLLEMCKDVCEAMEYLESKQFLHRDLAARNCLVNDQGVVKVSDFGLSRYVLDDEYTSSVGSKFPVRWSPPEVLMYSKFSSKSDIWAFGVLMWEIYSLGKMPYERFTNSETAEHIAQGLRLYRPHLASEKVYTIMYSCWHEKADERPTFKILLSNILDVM

SMILES | inhibition at 10 µM [1] | inhibition at 10 µM (read-out: BTK inhibition (%))
O=C(O)c1ccc(-c2ccc(/C=C3\SC(=S)N(Cc4ccccc4)C3=O)o2)cc1 [PCM-0215715] | 11.6% | –
O=C(Oc1coc(CSc2ncccn2)cc1=O)c1ccc([N+](=O)[O-])cc1 [PCM-0216050] | -3.9% | –
NCCCCCN [PCM-0216205] | 14.7% | –
Cc1cn([C@H]2O[C@@H](CO)[C@H](O)[C@H]2F)c(=O)[nH]c1=O [PCM-0214737] | 23.3% | –
CC(C)n1nccc1-c1ncccc1COc1cccc(O)c1C=O [PCM-0215847] | -13.1% | –
O=c1cc(N2CCOCC2)oc2c1ccc1ccccc12 [PCM-0215173] | -17.9% | –
O=C(O)CNC(=O)c1ccccc1 [PCM-0216220] | 20.8% | –
O=C(N[C@@H](c1ccccc1)[C@@H](O)C(=O)O)c1ccccc1 [PCM-0216301] | 9.3% | –
Oc1ccc(OC2CCCCO2)cc1 (centres unmarked) [PCM-0095551] | 11.7% | –
CCOC(=O)CCC(=O)O[C@H]1[C@H](O[C@@H]2[C@@H](C)[C@H](O[C@H]3C[C@@](C)(OC)[C@@H](O)[C@H](C)O3)[C@@H](C)C(=O)O[C@H](CC)[C@@](C)(O)[C@H](O)[C@@H](C)C(=O)[C@H](C)C[C@@]2(C)O)O[C@H](C)C[C@@H]1N(C)C [PCM-0214733] | -14.8% | –
Nc1ccn([C@H]2CC[C@@H](CO)O2)c(=O)n1 [PCM-0065156] | -22.6% | –
CO/N=C(\C(=O)N[C@@H]1C(=O)N2C(C(=O)[O-])=C(C[n+]3ccn4ncccc43)CS[C@H]12)c1nsc(N)n1 [PCM-0216591] | 10.8% | –
Clc1cccc(-c2nnnn2Cc2cccnc2)c1Cl [PCM-0215469] | -0.8% | –
Nc1nc2c(c(=O)[nH]1)N(C=O)C(CNc1ccc(C(=O)N[C@@H](CCC(=O)O)C(=O)O)cc1)CN2 (some centres unmarked) [PCM-0086396] | -17.9% | –
Cc1cc(/C=C/C#N)cc(C)c1Nc1ccnc(Nc2ccc(C#N)cc2)n1 [PCM-0215269] | 19.3% | –
COc1cc(Nc2ncc3c(n2)-c2ccc(Cl)cc2C(c2c(F)cccc2OC)=NC3)ccc1C(=O)O [PCM-0094940] | 83.4% | –
Cc1cc(N2CCOCC2)cc2[nH]c(-c3c(NC[C@@H](O)c4cccc(Cl)c4)cc[nH]c3=O)nc12 [PCM-0214699] | 109% | –
C[C@]12CC[C@H]3[C@@H](CC=C4CC(O)CC[C@@]43C)[C@@H]1CC[C@@H]2C(O)CC(O)(C(F)(F)F)C(F)(F)F (some centres unmarked) [PCM-0215756] | 11.6% | –
CC(=O)Oc1c(C)c(C)c2c(c1C)CC[C@@](C)(CCC[C@H](C)CCC[C@H](C)CCCC(C)C)O2 [PCM-0215944] | 0% | –
CC(C)(C)c1cc(C=C(C#N)C#N)cc(C(C)(C)C)c1O [PCM-0064935] | 15.2% | –
Cc1cnc(Nc2ccc(N3CCN(C)CC3)cc2)nc1Nc1cccc(S(=O)(=O)NC(C)(C)C)c1 [PCM-0095386] | 82.8% | –
C=C1C[C@@]23CC[C@H]4[C@@](C)(CCC[C@@]4(C)C(=O)O[C@@H]4O[C@H](CO)[C@@H](O)[C@H](O)[C@H]4O)[C@@H]2CC[C@]1(O[C@@H]1O[C@H](CO)[C@@H](O)[C@H](O[C@@H]2O[C@H](CO)[C@@H](O)[C@H](O)[C@H]2O)[C@H]1O[C@@H]1O[C@@H](C)[C@H](O)[C@@H](O)[C@H]1O)C3 [PCM-0214859] | -14.8% | –
O=C(Nc1ccccc1-c1cn2c(CN3CC[C@@H](O)C3)csc2n1)c1ccc2ccccc2c1 [PCM-0215757] | -1.5% | –
Nc1cc(C(Cl)=C(Cl)Cl)c(S(N)(=O)=O)cc1S(N)(=O)=O [PCM-0086106] | -3.9% | –
Cc1nc2n(c(=O)c1CCN1CCC(c3noc4cc(F)ccc34)CC1)CCCC2 [PCM-0086311] | 1.7% | –
O=C(NCCN1CCOCC1)c1ccc(Cl)cc1 [PCM-0064796] | -3.9% | –
CC1(C)S[C@@H]2[C@H](NC(=O)Cc3ccccc3)C(=O)N2[C@H]1C(=O)O [PCM-0214771] | -10.1% | –

SMILES | inhibition at 10 µM [1] | inhibition at 10 µM (read-out: BTK inhibition (%))
CC(C)(C)/[N+]([O-])=C/c1ccc(S(=O)(=O)O)cc1S(=O)(=O)O [PCM-0095556] | 7.7% | –
CCn1c2ccccc2c2cc(Nc3ccnc(NCCCN4CCOCC4)n3)ccc21 [PCM-0215246] | -6.9% | –
CN1[C@@H]2CC[C@H]1CC(O)C2 (some centres unmarked) [PCM-0215128] | – | -7.8%
Cc1nn(C)c2nc(NNC(=O)Nc3cc(Cl)nc(Cl)c3)cc(C(C)C)c12 [PCM-0215784] | 54.8% | –
C=C[C@H]1CN2CC[C@@]3(C(=O)Nc4ccccc43)[C@@H]2C[C@@H]1/C(=C\OC)C(=O)OC [PCM-0216491] | -7.7% | –
O=CO [PCM-0216152] | -12.4% | –
C[C@]12CC[C@H]3[C@@H](CCC4=CC(=O)C=C[C@@]43C)[C@@H]1CC[C@@H]2O [PCM-0216069] | – | -13.1%
CC(C)Oc1ccc2c(=O)c(-c3ccccc3)coc2c1 [PCM-0094837] | 17.9% | –
C/C(=C\CO)CCC[C@H](C)CCC[C@H](C)CCCC(C)C [PCM-0215913] | 3.9% | –
N#Cc1c(Oc2ccc(F)c(NC(=O)Cc3cccc(C(F)(F)F)c3)c2)ccc2nc(NC(=O)C3CC3)sc12 [PCM-0215264] | 37.9% | –
COc1ccc2cc(CCC(C)=O)ccc2c1 [PCM-0086446] | 7.6% | –
CC(C)NC(=O)C1CCC(n2c(NC(=O)c3ccc(F)cc3)nc3ccc(CN4CCC(C(C)(C)O)CC4)cc32)CC1 (centres unmarked) [PCM-0215859] | 53.1% | –
O=S(=O)(c1ccc2c(c1)C(=NO)c1cc(S(=O)(=O)N3CCCCC3)ccc1-2)N1CCCCC1 [PCM-0215952] | -18.5% | –
CCCc1cc(C)[nH]c(=O)c1CNC(=O)c1cc(-c2ccc(N3CCN(C)CC3)nc2)nc2c1cnn2C(C)C [PCM-0215988] | 15.4% | –
Cn1nc(C(C)(C)C)cc1C(=O)N[C@@H](Cc1cccc(Cl)c1)C(=O)NCC#N [PCM-0095472] | -18.7% | –
C[C@H](CC[C@@]1(O)O[C@H]2C[C@H]3[C@@H]4CC=C5C[C@@H](O[C@@H]6O[C@H](CO)[C@@H](O[C@@H]7O[C@@H](C)[C@H](O)[C@@H](O)[C@H]7O)[C@H](O)[C@H]6O[C@@H]6O[C@@H](C)[C@H](O)[C@@H](O)[C@H]6O)CC[C@]5(C)[C@H]4CC[C@]3(C)[C@H]2[C@@H]1C)CO[C@@H]1O[C@H](CO)[C@@H](O)[C@H](O)[C@H]1O [PCM-0215060] | -28% | –
Cc1ccc2nc(NCCN)c3ncc(C)n3c2c1 [PCM-0215260] | -16.6% | –
NC(=O)c1cccc2[nH]c(-c3ccc([C@@H]4CCCN4)cc3F)nc12 [PCM-0214633] | 17.1% | –
Cn1cc(/C=C2\C(=O)Nc3cccnc32)c2ccccc21 [PCM-0095342] | 22.8% | –
C=CC(=O)N1CCN(C(=O)CNc2cc(I)c(Cl)cc2O)CC1 [PCM-0215367] | 84.9% | –
C[C@]12C=CC(=O)N[C@@H]1CC[C@@H]1[C@@H]2CC[C@]2(C)[C@@H](C(=O)Nc3cc(C(F)(F)F)ccc3C(F)(F)F)CC[C@@H]12 [PCM-0214606] | -4.7% | –
O=c1cc(-c2ccc(O)c(O)c2)oc2c([C@@H]3O[C@H](CO)[C@@H](O)[C@H](O)[C@H]3O)c(O)cc(O)c12 [PCM-0216392] | -22.4% | –
CCCN1C[C@H](CSC)C[C@@H]2c3cccc4[nH]cc(c34)C[C@H]21 [PCM-0065439] | -1.6% | –
Cc1coc2c1C(=O)C(=O)c1c-2ccc2c1CCCC2(C)C [PCM-0091329] | 16.3% | –
NCCc1ccccc1 [PCM-0091318] | 0% | –
CC(C)(C#N)c1cc(Cn2cncn2)cc(C(C)(C)C#N)c1 [PCM-0086178] | -11% | –
